# Reference: article PMC2813745, “A novel inhibitor of the PI3K/Akt pathway based on the structure of inositol 1,3,4,5,6-pentakisphosphate” (British Journal of Cancer, 2010)
# Key:
# [1] = biological target: RPS6KA1 (RSK1) (Homo sapiens, UniProt Q15418); experiment: SelectScreen kinase profiling: RPS6KA1; format: biochemical; details: [ATP] 5 µM
# Procedure: (§1) Effect of the indicated compounds on the activity of various kinases was assessed by SelectScreen Kinase Profiling Service (Invitrogen-Life Technologies, Paisley, UK). Assays were performed using 1 μM of the tested compounds and ATP concentration as indicated in the corresponding tables. In the case of […] a screen using 10 μM of the compound was also carried out, as indicated in the corresponding table.
# [2] = biological target: GSK3A (GSK3α) (Homo sapiens, UniProt P49840); experiment: SelectScreen kinase profiling: GSK3A; format: biochemical; details: [ATP] 10 µM
# Procedure: as §1
# [3] = biological target: MAPK3 (ERK1) (Homo sapiens, UniProt P27361); experiment: SelectScreen kinase profiling: MAPK3; format: biochemical; details: [ATP] 50 µM
# Chain of MAPK3 (ERK1) (P27361 whole entry): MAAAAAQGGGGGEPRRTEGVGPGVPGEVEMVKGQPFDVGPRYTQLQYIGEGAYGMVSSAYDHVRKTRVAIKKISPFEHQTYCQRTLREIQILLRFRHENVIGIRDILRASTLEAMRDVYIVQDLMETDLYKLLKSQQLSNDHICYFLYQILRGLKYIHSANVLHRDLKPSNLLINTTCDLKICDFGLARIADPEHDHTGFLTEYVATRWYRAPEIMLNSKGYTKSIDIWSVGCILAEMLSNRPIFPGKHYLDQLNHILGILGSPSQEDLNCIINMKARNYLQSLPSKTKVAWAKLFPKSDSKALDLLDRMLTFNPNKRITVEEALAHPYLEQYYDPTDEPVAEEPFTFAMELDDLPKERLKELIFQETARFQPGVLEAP
# Procedure: as §1
# [4] = biological target: SRC (Homo sapiens, UniProt P12931); experiment: SelectScreen kinase profiling: SRC; format: biochemical; details: [ATP] 50 µM
# Procedure: as §1
# [5] = biological target: FRAP1 (mTOR) (Homo sapiens, UniProt P42345); experiment: SelectScreen kinase profiling: mTOR; format: biochemical
# Procedure: as §1
# [6] = biological target: RAF1 (cRAF) Y340D Y341D (Homo sapiens, UniProt P04049, Y340D/Y341D); experiment: SelectScreen kinase profiling: RAF1; format: biochemical; details: [ATP] 100 µM
# Procedure: as §1
# [7] = biological target: PRKCZ (PKCζ) (Homo sapiens, UniProt Q05513); experiment: SelectScreen kinase profiling: PRKCZ; format: biochemical; details: [ATP] 5 µM
# Procedure: as §1
# [8] = biological target: ROCK1 (Homo sapiens, UniProt Q13464); experiment: SelectScreen kinase profiling: ROCK1; format: biochemical; details: [ATP] 5 µM
# Procedure: as §1
# [9] = biological target: AKT3 (PKBγ) (Homo sapiens, UniProt Q9Y243); experiment: SelectScreen kinase profiling: AKT3; format: biochemical; details: [ATP] 100 µM
# Procedure: as §1
# [10] = biological target: MAPK14 (p38α) (Homo sapiens, UniProt Q16539); experiment: SelectScreen kinase profiling: MAPK14; format: biochemical; details: 1 µM compound; [ATP] 100 µM
# Chain of MAPK14 (p38α) (Q16539 whole entry): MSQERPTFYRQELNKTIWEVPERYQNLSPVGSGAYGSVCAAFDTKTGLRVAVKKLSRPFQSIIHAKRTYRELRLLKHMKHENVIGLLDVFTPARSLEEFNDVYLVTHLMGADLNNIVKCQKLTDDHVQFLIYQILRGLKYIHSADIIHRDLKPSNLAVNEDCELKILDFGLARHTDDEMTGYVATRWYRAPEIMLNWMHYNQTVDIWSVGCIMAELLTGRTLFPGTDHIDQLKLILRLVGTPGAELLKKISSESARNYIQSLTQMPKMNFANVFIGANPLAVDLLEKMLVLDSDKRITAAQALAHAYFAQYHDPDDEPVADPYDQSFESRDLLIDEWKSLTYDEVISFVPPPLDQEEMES
# Procedure: as §1
# [11] = biological target: Akt1 (PKBα) (Homo sapiens, UniProt P31749); experiment: SelectScreen kinase profiling: Akt1; format: biochemical; details: 10-point titration; [ATP] 75 μM
# Procedure: Effect of the indicated compounds on the activity of various kinases was assessed by SelectScreen Kinase Profiling Service (Invitrogen-Life Technologies, Paisley, UK). […] In the case of […] a screen using 10 μM of the compound was also carried out, as indicated in the corresponding table.
# [12] = biological target: MAP2K2 (MEK2) (Homo sapiens, UniProt P36507); experiment: SelectScreen kinase profiling: MAP2K2; format: biochemical; details: [ATP] 100 µM
# Chain of MAP2K2 (MEK2) (P36507 whole entry): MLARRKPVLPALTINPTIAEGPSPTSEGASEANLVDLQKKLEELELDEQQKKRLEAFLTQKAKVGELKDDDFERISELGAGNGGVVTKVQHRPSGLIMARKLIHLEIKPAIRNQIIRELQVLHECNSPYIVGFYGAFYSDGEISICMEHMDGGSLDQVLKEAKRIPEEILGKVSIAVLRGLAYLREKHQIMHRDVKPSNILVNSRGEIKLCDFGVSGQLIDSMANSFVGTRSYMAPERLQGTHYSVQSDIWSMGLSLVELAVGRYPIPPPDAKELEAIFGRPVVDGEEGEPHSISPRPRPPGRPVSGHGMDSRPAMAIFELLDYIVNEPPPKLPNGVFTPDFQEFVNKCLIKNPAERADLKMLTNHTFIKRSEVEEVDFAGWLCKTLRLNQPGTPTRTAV
# Procedure: as §1
# [13] = biological target: PRKCE (PKCε) (Homo sapiens, UniProt Q02156); experiment: SelectScreen kinase profiling: PRKCE; format: biochemical; details: [ATP] 25 µM
# Procedure: as §1
# [14] = biological target: BRAF (Homo sapiens, UniProt P15056); experiment: SelectScreen kinase profiling: BRAF; format: biochemical; details: [ATP] 100 µM
# Chain of BRAF (P15056 whole entry): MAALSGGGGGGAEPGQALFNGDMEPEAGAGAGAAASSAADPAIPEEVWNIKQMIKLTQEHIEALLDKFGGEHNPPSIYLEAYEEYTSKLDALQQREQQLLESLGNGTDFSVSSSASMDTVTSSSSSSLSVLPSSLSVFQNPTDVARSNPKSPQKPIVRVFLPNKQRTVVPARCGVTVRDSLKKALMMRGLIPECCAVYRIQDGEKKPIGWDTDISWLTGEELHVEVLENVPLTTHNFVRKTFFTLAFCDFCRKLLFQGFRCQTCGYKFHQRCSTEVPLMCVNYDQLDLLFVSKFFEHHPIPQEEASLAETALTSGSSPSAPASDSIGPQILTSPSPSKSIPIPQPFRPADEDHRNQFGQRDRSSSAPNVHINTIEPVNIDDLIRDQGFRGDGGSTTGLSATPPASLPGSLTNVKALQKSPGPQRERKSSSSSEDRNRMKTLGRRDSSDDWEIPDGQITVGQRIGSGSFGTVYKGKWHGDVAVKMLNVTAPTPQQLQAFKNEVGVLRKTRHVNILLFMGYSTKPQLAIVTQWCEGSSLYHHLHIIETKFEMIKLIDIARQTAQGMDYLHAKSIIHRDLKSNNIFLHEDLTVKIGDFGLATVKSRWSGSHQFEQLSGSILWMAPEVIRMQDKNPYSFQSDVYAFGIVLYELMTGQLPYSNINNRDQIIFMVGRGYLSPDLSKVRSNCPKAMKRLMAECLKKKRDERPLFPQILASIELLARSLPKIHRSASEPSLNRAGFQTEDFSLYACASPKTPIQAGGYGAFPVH
# Procedure: as §1
# [15] = biological target: RPS6KB1 (p70S6K) (Homo sapiens, UniProt P23443); experiment: SelectScreen kinase profiling: RPS6KB1; format: biochemical; details: [ATP] 10 µM
# Chain of RPS6KB1 (p70S6K) (P23443 whole entry): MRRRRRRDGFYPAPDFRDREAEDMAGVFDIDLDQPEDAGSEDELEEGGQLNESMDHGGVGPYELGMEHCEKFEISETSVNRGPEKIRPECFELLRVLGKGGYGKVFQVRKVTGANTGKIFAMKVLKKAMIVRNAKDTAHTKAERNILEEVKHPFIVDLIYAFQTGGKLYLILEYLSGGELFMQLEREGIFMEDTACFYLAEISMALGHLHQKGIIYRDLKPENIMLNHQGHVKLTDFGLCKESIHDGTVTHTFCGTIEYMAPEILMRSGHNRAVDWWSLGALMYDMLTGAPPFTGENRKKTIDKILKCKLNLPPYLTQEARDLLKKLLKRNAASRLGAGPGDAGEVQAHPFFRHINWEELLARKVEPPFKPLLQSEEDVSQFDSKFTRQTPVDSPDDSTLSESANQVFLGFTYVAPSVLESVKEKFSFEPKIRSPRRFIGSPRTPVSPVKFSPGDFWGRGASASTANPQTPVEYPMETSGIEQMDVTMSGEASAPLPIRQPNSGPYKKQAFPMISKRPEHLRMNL
# Procedure: as §1
# [16] = biological target: PRKCA (PKCα) (Homo sapiens, UniProt P17252); experiment: SelectScreen kinase profiling: PRKCA; format: biochemical; details: [ATP] 25 µM
# Procedure: as §1
# [17] = biological target: PAK6 (Homo sapiens, UniProt Q9NQU5); experiment: SelectScreen kinase profiling: PAK6; format: biochemical; details: [ATP] 10 µM
# Chain of PAK6 (Q9NQU5 whole entry): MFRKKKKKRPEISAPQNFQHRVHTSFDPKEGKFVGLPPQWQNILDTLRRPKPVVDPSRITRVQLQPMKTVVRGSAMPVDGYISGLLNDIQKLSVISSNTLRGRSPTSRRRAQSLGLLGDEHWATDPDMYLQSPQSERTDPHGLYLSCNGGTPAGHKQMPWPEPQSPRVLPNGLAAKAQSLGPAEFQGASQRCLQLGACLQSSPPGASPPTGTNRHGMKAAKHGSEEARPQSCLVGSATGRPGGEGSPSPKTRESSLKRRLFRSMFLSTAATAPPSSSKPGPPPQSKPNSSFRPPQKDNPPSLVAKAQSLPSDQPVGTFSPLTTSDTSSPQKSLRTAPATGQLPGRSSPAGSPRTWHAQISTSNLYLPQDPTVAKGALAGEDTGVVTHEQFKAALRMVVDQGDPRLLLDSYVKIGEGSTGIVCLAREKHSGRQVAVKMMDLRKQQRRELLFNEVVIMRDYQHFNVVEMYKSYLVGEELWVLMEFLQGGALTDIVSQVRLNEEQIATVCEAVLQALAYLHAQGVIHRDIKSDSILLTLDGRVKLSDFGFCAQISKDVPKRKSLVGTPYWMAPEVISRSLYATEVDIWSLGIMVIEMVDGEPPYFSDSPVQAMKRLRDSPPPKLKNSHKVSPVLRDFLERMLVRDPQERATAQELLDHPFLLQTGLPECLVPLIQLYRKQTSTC
# Procedure: as §1
# [18] = biological target: CHUK (IKKα) (Homo sapiens, UniProt O15111); experiment: SelectScreen kinase profiling: CHUK; format: biochemical; details: [ATP] 10 µM
# Procedure: as §1
# [19] = biological target: LCK (Homo sapiens, UniProt P06239); experiment: SelectScreen kinase profiling: LCK; format: biochemical; details: [ATP] 50 µM
# Procedure: as §1
# [20] = biological target: CSNK1A1 (CK1α1) (Homo sapiens, UniProt P48729); experiment: SelectScreen kinase profiling: CSNK1A1; format: biochemical; details: [ATP] 5 µM
# Chain of CSNK1A1 (CK1α1) (P48729 whole entry): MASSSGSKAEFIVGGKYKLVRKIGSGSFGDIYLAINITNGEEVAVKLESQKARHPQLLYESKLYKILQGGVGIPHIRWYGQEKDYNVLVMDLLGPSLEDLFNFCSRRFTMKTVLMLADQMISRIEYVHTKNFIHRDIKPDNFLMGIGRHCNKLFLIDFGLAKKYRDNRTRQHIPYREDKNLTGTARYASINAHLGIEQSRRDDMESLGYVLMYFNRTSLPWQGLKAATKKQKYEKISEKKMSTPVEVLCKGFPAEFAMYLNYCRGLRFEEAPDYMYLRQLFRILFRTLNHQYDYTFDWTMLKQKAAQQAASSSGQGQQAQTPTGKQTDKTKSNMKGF
# Procedure: as §1
# [21] = biological target: CDK5/p25 (Homo sapiens, UniProt Q00535); experiment: SelectScreen kinase profiling: CDK5/p25; format: biochemical; details: [ATP] 10 µM
# Procedure: as §1
# [22] = biological target: CLK1 (Homo sapiens, UniProt P49759); experiment: SelectScreen kinase profiling: CLK1; format: biochemical; details: [ATP] 25 µM
# Procedure: as §1
# [23] = biological target: BTK (Homo sapiens, UniProt Q06187); experiment: SelectScreen kinase profiling: BTK; format: biochemical; details: [ATP] 25 µM
# Procedure: as §1
# [24] = biological target: IRAK4 (Homo sapiens, UniProt Q9NWZ3); experiment: SelectScreen kinase profiling: IRAK4; format: biochemical; details: [ATP] 25 µM
# Chain of IRAK4 (Q9NWZ3 whole entry): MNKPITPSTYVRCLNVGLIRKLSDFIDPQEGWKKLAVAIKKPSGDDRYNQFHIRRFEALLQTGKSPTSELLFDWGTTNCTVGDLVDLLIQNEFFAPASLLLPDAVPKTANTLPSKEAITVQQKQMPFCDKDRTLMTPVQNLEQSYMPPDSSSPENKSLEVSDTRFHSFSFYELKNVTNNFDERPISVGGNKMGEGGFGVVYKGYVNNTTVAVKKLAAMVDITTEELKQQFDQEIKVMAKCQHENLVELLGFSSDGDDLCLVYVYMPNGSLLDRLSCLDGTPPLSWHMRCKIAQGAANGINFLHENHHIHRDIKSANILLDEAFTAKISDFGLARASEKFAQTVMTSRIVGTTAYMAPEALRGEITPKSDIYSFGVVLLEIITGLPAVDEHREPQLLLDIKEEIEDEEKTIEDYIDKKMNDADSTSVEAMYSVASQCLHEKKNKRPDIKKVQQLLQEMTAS
# Procedure: as §1
# [25] = Water solubility; format: physicochemical
# [26] = biological target: MAPKAPK2 (Homo sapiens, UniProt P49137); experiment: SelectScreen kinase profiling: MAPKAPK2; format: biochemical; details: 1 µM compound; [ATP] 5 µM
# Chain of MAPKAPK2 (P49137 whole entry): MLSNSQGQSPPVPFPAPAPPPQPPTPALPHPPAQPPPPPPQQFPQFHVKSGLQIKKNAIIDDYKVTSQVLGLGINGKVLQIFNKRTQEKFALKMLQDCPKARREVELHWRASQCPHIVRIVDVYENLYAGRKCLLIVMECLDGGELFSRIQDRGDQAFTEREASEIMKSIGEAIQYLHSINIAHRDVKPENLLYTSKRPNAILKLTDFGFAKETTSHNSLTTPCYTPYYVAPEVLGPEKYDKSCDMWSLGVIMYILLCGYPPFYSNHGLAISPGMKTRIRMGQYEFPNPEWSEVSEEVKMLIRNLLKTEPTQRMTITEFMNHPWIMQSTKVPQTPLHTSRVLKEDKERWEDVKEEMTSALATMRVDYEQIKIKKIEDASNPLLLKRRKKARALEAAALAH
# Procedure: as §1
smiles,measurement,setting,value
"O=P(O)(O)OC1C(O)C(OP(=O)(O)O)C(OP(=O)(O)O)C(OP(=O)(O)O)C1OP(=O)(O)O (stereo not drawn) [InsP5, inositol 1,3,4,5,6-pentakisphosphate]",inhibition at 10 µM,[1]; 10 µM compound,12%
same,inhibition at 10 µM,[2]; 10 µM compound,15%
same,inhibition at 10 µM,[3]; 10 µM compound,3%
same,inhibition at 10 µM,[4]; 10 µM compound,10%
same,% Inhibition Mean,"[5]; 10 µM compound, [ATP] 10 µM",did not inhibit mTOR
same,inhibition at 10 µM,"[5]; 10 µM compound, [ATP] 10 µM",16%
same,inhibition at 10 µM,[6]; 10 µM compound,18%
same,inhibition at 10 µM,[7]; 10 µM compound,-8%
same,inhibition at 10 µM,[8]; 10 µM compound,20%
same,inhibition at 10 µM,[9]; 10 µM compound,10%
same,inhibition at 1 µM,[10],23%
same,IC50,[11],> 100 µM
same,inhibition at 10 µM,[12]; 10 µM compound,3%
same,inhibition at 10 µM,[13]; 10 µM compound,0%
same,inhibition at 10 µM,[14]; 10 µM compound,10%
same,inhibition at 10 µM,[15]; 10 µM compound,9%
same,inhibition at 10 µM,[16]; 10 µM compound,30%
same,inhibition at 10 µM,[17]; 10 µM compound,20%
same,inhibition at 10 µM,[18]; 10 µM compound,3%
same,inhibition at 10 µM,[19]; 10 µM compound,-26%
same,inhibition at 10 µM,[20]; 10 µM compound,13%
same,inhibition at 10 µM,[21]; 10 µM compound,13%
same,inhibition at 10 µM,[22]; 10 µM compound,9%
same,inhibition at 10 µM,[23]; 10 µM compound,8%
same,inhibition at 10 µM,[24]; 10 µM compound,-5%
same,water solubility,[25],water soluble compound
same,inhibition at 1 µM,[26],4%
"O=P(O)(O)OC1C(OCc2ccccc2)C(OP(=O)(O)O)C(OP(=O)(O)O)C(OP(=O)(O)O)C1OP(=O)(O)O (stereo not drawn) [2-O-Bn-InsP5, 2-O-benzyl-myo-inositol 1,3,4,5,6-pentakisphosphate]",inhibition at 1 µM,[1]; 1 µM compound,2%
same,inhibition at 1 µM,[2]; 1 µM compound,3%
same,inhibition at 1 µM,[3]; 1 µM compound,19%
same,inhibition at 1 µM,[4]; 1 µM compound,4%
same,inhibition at 1 µM,"[5]; 1 µM compound, [ATP] 10 µM",48%
same,IC50,"[5]; 10-point titration, [ATP] 10 μM",1.3 µM
same,inhibition at 1 µM,[6]; 1 µM compound,5%
same,inhibition at 1 µM,[7]; 1 µM compound,10%
same,inhibition at 1 µM,[8]; 1 µM compound,7%
same,inhibition at 1 µM,[9]; 1 µM compound,10%
same,inhibition at 1 µM,[10],30%
same,IC50,[11],> 100 µM
same,inhibition at 1 µM,[12]; 1 µM compound,8%
same,inhibition at 1 µM,[13]; 1 µM compound,14%
same,inhibition at 1 µM,[14]; 1 µM compound,5%
same,inhibition at 1 µM,[15]; 1 µM compound,17%
same,inhibition at 1 µM,[16]; 1 µM compound,21%
same,inhibition at 1 µM,[17]; 1 µM compound,9%
same,inhibition at 1 µM,[18]; 1 µM compound,-2%
same,inhibition at 1 µM,[19]; 1 µM compound,7%
same,inhibition at 1 µM,[20]; 1 µM compound,0%
same,inhibition at 1 µM,[21]; 1 µM compound,3%
same,inhibition at 1 µM,[22]; 1 µM compound,-4%
same,inhibition at 1 µM,[23]; 1 µM compound,5%
same,inhibition at 1 µM,[24]; 1 µM compound,-35%
same,water solubility,[25],water soluble compound
same,inhibition at 1 µM,[26],20%
